Data taken from article PMC11325555, “Interaction of Bisphenol A and Its Analogs with Estrogen and Androgen Receptor from Atlantic Cod (Gadus morhua)” (Environmental Science & Technology, 2024).
pEC50, pIC50: −log10 of the molar value.

Experiments:
[1] = molecular target: T1, Atlantic cod androgen receptor alpha (gmAra) LBD (Gadus morhua, UniProt D5FIC7); experiment: Luciferase reporter gene assay, gmAra agonism (androgenic activity) in transfected COS-7 cells
T1 sequence (D5FIC7 409-718): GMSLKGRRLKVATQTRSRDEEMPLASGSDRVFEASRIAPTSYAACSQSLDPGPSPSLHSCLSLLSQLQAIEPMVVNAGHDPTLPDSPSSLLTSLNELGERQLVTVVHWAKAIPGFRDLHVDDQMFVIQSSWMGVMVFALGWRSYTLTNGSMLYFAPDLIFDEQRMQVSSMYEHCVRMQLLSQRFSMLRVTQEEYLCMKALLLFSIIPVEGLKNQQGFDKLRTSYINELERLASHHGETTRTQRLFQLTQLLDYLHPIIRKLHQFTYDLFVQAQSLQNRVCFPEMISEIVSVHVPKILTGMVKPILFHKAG
Experimental: (§1) Ligand activation of gmEra and gmAra was studied with a luciferase reporter gene assay in COS-7 cells transiently transfected with the pCMX-GAL4(DBD)-gmEra(LBD) or pCMX-GAL4(DBD)-gmAra(LBD) plasmid by using the TransIT-LT1 reagent (TransIT-LT1 Transfection Reagent, Mirus). Cells were seeded into 96-well plates (5000 cells/well) and incubated for 24 h before cotransfection with the plasmid mixture (100 ng/well). The plasmid mixture contained GAL4-UAS luciferase reporter plasmid (tk-(MH100)x4 luc), the pCMX-GAL4(DBD)-gmEra(LBD) or pCMX-GAL4(DBD)-gmAra(LBD) receptor plasmids (2:1 reporter:receptor plasmid mass ratio), and a plasmid constitutively producing the β-galactosidase enzyme used for normalization of transfection efficiency (pCMV- β-Gal). […] The maximum DMSO/methanol concentrations in the exposure wells were 0.5% (v/v) in DMEM medium without phenol red (Sigma-Aldrich). After exposure, cells were lysed, and luciferase and beta-galactosidase activities were measured as luminescence and absorbance (420 nm) after the addition of luciferin and ONPG substrates, respectively, using an Enspire Multimode plate reader (PerkinElmer, Waltham, Massachusetts, USA).
Figure 3 Androgenic activity of bisphenols. COS-7 cells were transiently transfected with gmAra LBD and exposed individually to 12 bisphenol analogs at increasing concentrations. […] The dose–response curves were created using nonlinear regression and the four-parameter logistic fit in Graphpad Prism v.9. For comparison, the dose–response curve of BPA (black line) is indicated together with each individual BP tested (red line). *p < 0.05 versus solvent control by one-way ANOVA and Dunnett’s multiple comparison post hoc test.

[2] = molecular target: T1, Atlantic cod androgen receptor alpha (gmAra) LBD; experiment: Luciferase reporter gene assay, gmAra antagonism (antiandrogenic activity), coexposure with 5 nM testosterone; type: cell-based; details: for effect on testosterone-mediated gmAra activity, result in words: BPs 0.003–50 μM with 5 nM testosterone; for pIC50: gmAra IC50, in the presence of 5 nM testosterone (EC20)
Experimental: as §1
(§2) The dose–response curves were created using nonlinear regression and the four-parameter logistic fit in Graphpad Prism v.9. *p < 0.05 versus solvent control by ANOVA and Dunnett’s multiple comparison post hoc test.

COS-7 cells = experiment: Cytotoxicity toward COS-7 cells (resazurin and CFDA-AM assays); details: 24 h; for concentration that affected COS-7 cell viability: binary combination with 0.003 μM EE2
Text: The cytotoxicity of the test compounds toward COS-7 cells was monitored by measuring the metabolic activity and membrane integrity through the conversion of resazurin and 5-carboxyfluorescein diacetate acetoxymethyl ester (CFDA-AM), respectively, as described previously by Pérez-Albaladejo et al.[54] […]
used as a negative control.
Figure S2. Assessing metabolic activity (resazurin) and cell membrane integrity (CFDA-AM) in COS-7 cells after BP exposures. COS-7 cells were exposed to three concentrations of each BP, as well as three concentrations […]
exposed at 37 °C and 5 % CO2 for 24 hours. Cytotoxicity is indicated by a reduction in the fluorescent signal (denoted as % Cell survival) relative to the solvent control (DMSO, dotted line) adjusted to 100 %. A reduction in cell viability exceeding 20 % is generally regarded as cytotoxic (indicated with a red dotted line) (ISO, I. 2009.
10993–5: 2009 Biological evaluation of medical devices—part 5: tests for in vitro cytotoxicity. International Organization for Standardization, Geneva.).
(1 picture or pasted object on this page, not shown here)

[3] = tested on: Er-mediated synthesis of Vtg in Atlantic cod PCLS; experiment: Vitellogenin ELISA in media of exposed precision-cut liver slices (PCLS); type: cell-based, Atlantic cod (Gadus morhua); details: 96 h; for Vtg synthesis in PCLS, result in words: 1, 10, 100 μM bisphenols or 0.1, 1, 10 nM EE2, Vtg in media by ELISA; for concentration at which maximum Vtg levels were observed: 1, 10, 100 μM tested
Experimental: PCLS culturing and exposure assays were performed essentially as described previously,[42],[56] with the modifications described below. Juvenile Atlantic cod were killed by a blow to the head, and the liver was dissected out and placed in a Petri dish containing ice-cold PCLS buffer (122 mM NaCl, 4.8 mM KCl, 1.2 mM MgSO4, 11 mM Na2HPO4, 3.7 mM NaHCO3, […]). The liver was then cut into small tissue blocks (approximately 3 cm long, 2 cm wide, and 1–3 cm high) and kept in ice-cold complete culture medium (L-15 medium supplemented with 10% FBS and 1× antibiotic-antimycotic solution). For slicing, the tissue block was fixed on the specimen plate of a Leica vibrating blade microtome VT1200 (Leica, Wetzlar, Germany) using Loctite Super Glue (Clas Ohlson, Bergen, Norway), and 250 μm thick tissue slices were cut (under ice-cold PCLS buffer) and kept in a Petri dish with ice-cold complete culture medium. Using a sterile razor blade, the tissue slices (2 × 3 cm) were then divided into smaller pieces (approximately 4 × 4 mm) and distributed into a 12-well cell culture plate (Sarstedt, Nümbrecht, Germany), each well containing 6 slices and 2 mL of complete culture medium. The PCLS were preincubated at 10 °C for 2 h before exposure. After preincubation, 1 mL of the medium was removed from each well and replaced by 1 mL of fresh complete culture medium containing 2x the final desired concentration and incubated at 10 °C for 96 h with shaking at 50 rpm. […] At the end of the exposure, slices were collected with tweezers and rinsed briefly in cold PBS. Excess PBS was removed by carefully touching a dry surface of the culture plate with the slice 4 times before measuring the weight in a preweighed cryotube. The slices were then snap-frozen in liquid N2 and stored at −80 °C. The media was also sampled and stored at −80 °C for viability (LDH) assay and vitellogenin ELISA.
Vitellogenin (Vtg) in media collected from exposed PCLS was quantified using the Atlantic Cod Vitellogenin ELISA kit (Biosense Laboratories AS, Bergen, Norway) according to manufacturer’s instructions. Vtg was quantified in 100 μL of undiluted media and normalized to the weight of the liver tissue. Statistical analysis of ELISA data was performed with GraphPad Prism Software version 9 (GraphPad Prism, La Jolla, CA, USA) by using one-way ANOVA followed by Dunnett’s test (for normally distributed data) or Friedman test followed by Dunn’s test (for non-normally distributed data), as described previously for PCLS experiments (Yadetie et al.[42]).
Figure 5 Relative vitellogenin production in Atlantic cod precision-cut liver slices (PCLS) exposed to bisphenols and EE2. PCLS were exposed to 1, 10, and 100 μM bisphenols or 0.1, 1, and 10 nM EE2, for 96 h. EE2 was included as positive control for activation of the gmEra signaling pathway. Levels of induced Vtg in the PCLS media were measured using ELISA (Cod Vitellogenin ELISA kit, Biosense Laboratories AS). The data represents mean ± SEM of fold change (compared to solvent control) of Vtg levels from 4 to 10 fish. n = 8–10 for all bisphenols except for BADGE (n = 4). Asterisks denote significant changes (p < 0.05) compared to solvent control.

[4] = molecular target: T2, Atlantic cod estrogen receptor alpha (gmEra) LBD (Gadus morhua, UniProt U5ILH7); experiment: Luciferase reporter gene assay, gmEra agonism (estrogenic activity) in transfected COS-7 cells; details: for gmEra REP50 (relative potency EC50, EC50-bisphenol A/EC50-bisphenol X): relative to BPA
T2 sequence (U5ILH7 170-455): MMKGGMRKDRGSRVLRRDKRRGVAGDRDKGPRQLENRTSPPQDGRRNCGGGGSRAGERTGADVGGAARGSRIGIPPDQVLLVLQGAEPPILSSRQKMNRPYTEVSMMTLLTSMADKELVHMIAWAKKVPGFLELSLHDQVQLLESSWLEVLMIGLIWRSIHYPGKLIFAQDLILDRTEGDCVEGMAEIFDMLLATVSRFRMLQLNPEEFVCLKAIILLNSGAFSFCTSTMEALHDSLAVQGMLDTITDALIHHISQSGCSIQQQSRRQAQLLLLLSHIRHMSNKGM
Experimental: as §1
Luciferase reporter gene assays were established with COS-7 cells transiently producing the LBD of gmEra (Figure S1) for evaluating the estrogenic potential of 12 bisphenols.
COS-7 cells transiently transfected with gmEra-LBD were exposed to EE2 (open circles), BPA (black circles), and 11 different BPA analogs (red squares and as indicated) at increasing concentrations. Responses are presented as mean fold activation in luciferase activity in comparison to solvent-exposed cells ± SEM from three independent experiments with three technical replicates (n = 9). The dose–response curves were created using nonlinear regression and the four parameter logistic fit in Graphpad Prism v.9. For comparison, the dose–response curve of BPA (black line) is indicated together with each individual BP tested (red line). *p < 0.05 versus solvent control by one-way ANOVA and Dunnett’s multiple comparison post hoc test.

[5] = molecular target: T2, Atlantic cod estrogen receptor alpha (gmEra) LBD; experiment: Luciferase reporter gene assay, gmEra antagonism (antiestrogenic activity), coexposure with 3 nM EE2; type: cell-based; details: for antiestrogenic effect on gmEra, result in words: coexposure with EE2 (3 nM, EC20)
Experimental: as §1
To investigate potential antiestrogenic effects, COS-7 cells transiently expressing gmEra LBD were exposed to the 12 bisphenols in binary mixtures with a fixed concentration of EE2 (3 nM, corresponding to EC20) (Figure 2 and Table 1).
as §2

[6] = antiandrogenic reporter assay conditions (with testosterone), highest concentration used
[7] = gmEra EC50, four-parameter logistic fit, 24 h exposure

SMILES	effect on testosterone-mediated gmAra activity, result in words [2]	pIC50 [2]	Vtg synthesis in PCLS, result in words [3]	pEC50 [4, 7]	antiestrogenic effect on gmEra, result in words [5]	also measured
C[C@]12CC[C@H]3[C@@H](CCC4=CC(=O)CC[C@@]43C)[C@@H]1CC[C@@H]2O [T, testosterone, reference compound]						gmAra Emax ([1]; fold activation in luciferase activity vs solvent control, 24 h exposure, a = plateau not reached): 42.1 fold activation
CC(C)c1cc(C(C)(C)c2ccc(O)c(C(C)C)c2)ccc1O [BPG]	significantly decrease the testosterone-mediated Ara-activity	6.70	able to induce Vtg synthesis in PCLS			cytotoxic concentration in COS-7 cells (COS-7 cells; [6]): 50 µM; concentration that affected COS-7 cell viability (COS-7 cells; highest concentration used): 50 µM
Oc1ccc(C(=C(Cl)Cl)c2ccc(O)cc2)cc1 [BPC2]				6.70		pIC50 [5]: 7.22
Oc1ccc(Cc2ccc(O)cc2)cc1 [BPF]			induced the highest Vtg-levels ex vivo	5.42	no antiestrogenic effects	
C#C[C@]1(O)CC[C@H]2[C@@H]3CCc4cc(O)ccc4[C@H]3CC[C@@]21C [EE2, 17α-Ethynylestradiol, reference compound]			increased Vtg-levels in the media in a dose-dependent manner	8.15		maximal fold induction ([4]; COS-7, monkey, 24 h, read-out: gmEra Emax): 80; potency toward gmEra relative to BPA (times more potent) ([4]; EE2 compared with BPA): ~10^3; pEC50 ([4]; gmEra EC50, value given in text): 8.17; gmEra REP50 (relative potency EC50, EC50-bisphenol A/EC50-bisphenol X) [4]: 271
CCC(C)(c1ccc(O)cc1)c1ccc(O)cc1 [BPB]				5.80	no antiestrogenic effects	
CC1CC(C)(C)CC(c2ccc(O)cc2)(c2ccc(O)cc2)C1 (stereo not drawn) [BPTMC]	significantly decrease the testosterone-mediated Ara-activity	5.76				cytotoxic concentration in COS-7 cells (COS-7 cells; [6]): 50 µM; concentration that affected COS-7 cell viability (COS-7 cells; highest concentration used): 50 µM; concentration at which maximum Vtg levels were observed [3]: 10 µM
O=S(=O)(c1ccc(O)cc1)c1ccc(O)cc1 [BPS]				4.08	no antiestrogenic effects	
Oc1ccc(C(c2ccc(O)cc2)(C(F)(F)F)C(F)(F)F)cc1 [BPAF]				6.64	no antiestrogenic effects	cytotoxic concentration in COS-7 cells (COS-7 cells; African green monkey): 50 µM; concentration at which maximum Vtg levels were observed [3]: 10 µM
Oc1ccc(C2(c3ccc(O)cc3)CCCCC2)cc1 [BPZ]	significantly decrease the testosterone-mediated Ara-activity	6.06	only moderate and not statistically significant			effect on testosterone-mediated gmAra activity at lower concentrations, result in words ([2]; lower concentrations used (3–80 nM) with 5 nM testosterone): significant increases in gmAr activity; cytotoxic concentration in COS-7 cells (COS-7 cells; [6]): 50 µM; concentration that affected COS-7 cell viability (COS-7 cells; highest concentration used): 50 µM; concentration at which maximum Vtg levels were observed [3]: 10 µM
CC(c1ccc(O)cc1)c1ccc(O)cc1 [BPE]	significantly decrease the testosterone-mediated Ara-activity	6.34	induced the highest Vtg-levels ex vivo	4.93	no antiestrogenic effects	gmEra REP50 (relative potency EC50, EC50-bisphenol A/EC50-bisphenol X) [4]: 0.2; maximal fold induction ([1]; COS-7, monkey, 24 h, read-out: gmAra Emax): 1.2
CC(C)C(=O)Nc1ccc([N+](=O)[O-])c(C(F)(F)F)c1 [flutamide, reference compound]		~6.15				
